A melting point compilation (Tetko et al.; mined from patent text by program, amines drawn as free bases though some values may be those of a salt)
Residues, ends and D or L forms follow the SMILES beside them. *: point of attachment. Cbz = O=C(OCc1ccccc1)*

| Compound | melting point |
| --- | --- |
| CCCNC(=O)C(C)Cc1ccc2c(c1)c(Cc1ccc(C(=O)NS(=O)(=O)c3ccccc3C)cc1OC)cn2CCC (centres undefined) | 95 to 113 °C |
| NC(=O)c1ccc(F)c2c1C=C([N+](=O)[O-])CO2 | 225 to 227 °C |
| NC(CCCCNC(=O)NC(Cc1c[nH]c2ccccc12)C(=O)O)C(=O)O (centres undefined) | 133 °C |
| COc1cc(C)c(C(=O)c2ccc(OCc3nc(-c4ccccc4)oc3C)cc2)c(O[C@H](C)C(=O)O)c1 | 122 to 123 °C |
| O=c1[nH]c(=O)n(Cc2ccc(Cl)cc2)c2ccccc12 | 217 to 218 °C |
| COC(=O)COc1ccc(C=Cc2nc(-c3ccccc3)c(-c3ccccc3)o2)cc1 | 122 to 123 °C |
| COc1cc(C)c([N+](=O)[O-])c(C)c1 | 50 to 52 °C |
| CC(C)(C)OC1OC(=O)CC(C)(C)C1OS(C)(=O)=O (centres undefined) | 64 °C |
| COc1cc(Nc2nccc(C(=O)c3ccccc3)n2)cc(OC)c1OC | 165 °C |
| O=C(OC(c1ccccc1)c1ccccc1)C1=C(Sc2ccccc2)CC2CC(=O)C12 (centres undefined) | 148 to 150 °C |
| COC(=O)CCC(=O)N(O)Cc1c(C)n(C(=O)c2ccc(Cl)cc2)c2ccc(OC)cc12 | 158 °C |
| Cc1ccc(S(=O)(=O)Nc2ccc(C#N)cc2Cl)cc1 | 186 to 187 °C |
| NC(=O)c1cc2ccccc2[nH]1 | 231 to 232 °C |
| CCCCCCCCC#Cc1ccc(C(=O)O)cc1 | 103 °C |
| Oc1nc2ccc(Br)cc2[nH]1 | 305 to 307 °C |
| CC(=O)Nc1nsc2ccc(NS(=O)(=O)c3cc(Cl)ccc3Cl)cc12 | 169 to 172 °C |
| O=C(O)c1cc(OCCCOc2ccc(OCc3ccccc3)cc2)cc(OCCCOc2ccc(OCc3ccccc3)cc2)c1 | 139 to 140 °C |
| NCC#CCCCC(=O)O | 180 to 183 °C |

| Compound | melting point |
| --- | --- |
| COC(=O)CCc1cc(C(CC(C)C)NC(=O)Cc2ccc(NC(=O)Nc3ccccc3C)cc2)no1 (centres undefined) | 153 to 154 °C |
| C=CC(C)(C)C(O)C(Oc1ccc(Cl)cc1)n1ccnc1 (centres undefined) | 88 to 90 °C |
| CCOc1ccc(S(=O)c2ccccc2)cc1[N+](=O)[O-] (centres undefined) | 119 to 121 °C |
| C[C@@H](CO)Oc1ccc(-c2ccccc2)cc1 | 75 to 78 °C |
| CCc1nc(C)c(C(=O)OC(C)OC(=O)C(C)(C)OC)n1Cc1ccc2oc(-c3ccccc3-c3nnn[nH]3)c(Br)c2c1 (centres undefined) | 135 to 140 °C |
| CCCCCCCCCCCCCCCCCCOc1ccc(C(=O)O)c(OCCCOc2ccc(O)cc2)c1 | 97 to 100 °C |
| COC(=O)C(CO)NC(=O)C(Cc1c[nH]c2ccccc12)NC(=O)OCc1ccccc1 (stereo not drawn) (Cbz-Trp-Ser-OMe; configuration not given here) | 133 to 135 °C |
| Cc1cc(F)ccc1NC(=O)c1cc([N+](=O)[O-])ccc1NC(=O)CF | 237 to 239 °C |
| CC(=O)Oc1cccc(-c2c3ccccc3c(Br)c3sc4ccccc4c23)c1 | 74 to 76 °C |
| Cc1cc(-c2cc(O)c(SCCc3ccccc3)c(=O)o2)ccc1OCc1ccccc1 | 147 to 148 °C |
| CCOC(=O)c1ccc2c(c1)N(C(=O)c1ccccc1)Cc1ccccc1O2 | 149 to 150 °C |
| Nc1c(C=O)c(=O)n(-c2ccccc2)c(=O)n1-c1ccccc1 | 141 to 142 °C |
| CCOC(=O)C(=O)c1oc2cc(C)ccc2c1O | 113 to 115 °C |
| CN(C)Cc1ccc2c(c1)Cc1c(-c3cccs3)n[nH]c1-2 | 204 to 206 °C |
| O=C(c1ccccc1)c1[nH]c2cc(Cl)ccc2c1CC(=O)N1CCOCC1 | 188 to 190 °C |
| O=C1c2ccccc2C(=O)N1OCCCN1CCN(c2cccc(Cl)c2)CC1 | 140 to 142 °C |
| O=C1NCN(c2ccccc2)C12CCN(CCCn1c(=O)[nH]c3cc(Cl)ccc31)CC2 | 234 °C |
| CC(O)(CCC#N)c1ccc(Oc2cccc(Cl)c2)cc1 (centres undefined) | 68 to 70 °C |

Continued, values first:

| melting point | Compound |
| --- | --- |
| 108 to 113 °C | CCCSc1nc(N)c2ncn(C3C=CCCC3)c2n1 (centres undefined) |
| 192 to 194 °C | CCOC(=O)c1cn(CCCl)c2nc(-c3ccncc3)c(F)cc2c1=O |
| 49 to 51 °C | O=C(c1ccccc1)c1ccc(SCCO)cc1 |
| 183 to 185 °C | N#Cc1ccc2oc(CCc3ccc(C(=O)Nc4cnccn4)cc3)cc2c1 |
| 194 °C | CCN(CC)C(=O)c1cccc(-c2nc(=O)c3ccccc3s2)n1 |
| 257 to 259 °C | O=c1[nH]c2c(c3nc(-c4ccccc4)nn13)CN(Cc1ccccc1)CC2 |
| 101 to 103 °C | CCOC(=O)N(O)Cc1cccc(Nc2ccccc2C(=O)OC)c1C |
| 214 to 217 °C | CCOC1=NS(=O)(=O)C(S(C)(=O)=O)=C1N |
| 123 to 125 °C | C=CCN(c1ncnc2c1ncn2C1OC(CO)C(O)C1O)C1CCCCC1 (centres undefined) |
| 186 to 188 °C | Cc1cc(CCC(=O)OC(C)(C)C)cc(-c2nc(=O)c3ccc(Cl)cc3s2)n1 |
| 133 to 135 °C | Cc1ccc2cc(NC(=O)c3cccc(CSc4cnccn4)c3)ccc2n1 |
| 228 to 229 °C | NCC1=C(CCC(=O)O)CC=CC1 |
| 129 to 130 °C | COc1ccc(C2CC(=O)CC(c3ccc(OC)cc3)N2C)cc1 (centres undefined) |
| 176 °C | Brc1ccc2nc(-c3cccnc3)nn2c1 |
| 170 to 172 °C | CC(=O)Oc1cccc2c1C(=O)C(CN1CCC(O)(c3ccccc3)CC1)CC2 (centres undefined) |
| 136 to 137 °C | COC(=O)CCn1c(=O)n(CCN2CCN(c3cccc(OC)c3)CC2)c(=O)c2cscc21 |
| 170 to 171 °C | c1ccc(-c2cnc(N3CCc4c([nH]c5ccccc45)C3C3Cc4ccccc4O3)nc2)nc1 (centres undefined) |

| melting point | Compound |
| --- | --- |
| 205 to 206 °C | Cn1cnc(COc2nn3c(-c4ccccc4)nnc3cc2N2CCOCC2)n1 |
| 116 to 118 °C | Nc1nc(CC(=O)Nc2cccc(C(F)(F)F)c2)cs1 |
| 275 to 278 °C | CCn1c(=O)c(-c2c(Cl)cccc2Cl)cc2cnc(Nc3cc(OC)c(OC)c(OC)c3)nc21 |
| 171 to 173 °C | CCOCc1nc2c(N)nc3cccnc3c2n1CC1(O)CCCCC1 |
| 172 to 173 °C | Cc1oc(-c2ccccc2)nc1COc1ccc(Cn2cc(CCC(=O)O)c(-c3cccs3)n2)cc1 |
| 161 to 163 °C | CCOC(=O)c1nocc1Cn1nnnc1-c1cccc(Cl)c1Cl |
| 228 to 230 °C | CC1(CN2CCN(c3nc4ccccc4o3)CC2)Cn2cc([N+](=O)[O-])nc2O1 (centres undefined) |
| 199 to 201 °C | CC1(CN2CCC(n3c(=O)[nH]c4ccccc43)CC2)OCc2ccccc2-n2cccc21 (centres undefined) |
| 69 to 71 °C | CCOC(=O)CON(C)C(=S)Nc1ccc2c(c1)CCC2 |
| 98 to 102 °C | Cc1ccc2cc(NC(=O)c3cccc(CCc4cc(Nc5ccccc5)n[nH]4)c3)ccc2n1 |
| 136 to 137 °C | CC1(C)CCC(=O)N(C2c3cc4nonc4cc3OC(C)(C)C2O)C1 (centres undefined) |
| 68.5 to 70 °C | CCOC(=O)C(=O)c1ccc(OCC(=O)c2c(C)cc(C)cc2C)cc1 |
| > 265 °C | CNC(=C[N+](=O)[O-])NCc1ccc2c(c1)Nc1nccnc1S2 |
| 89 to 90 °C | CSc1nccc(-c2cccc(C(F)(F)F)c2)n1 |
| 86 to 105 °C | COc1cc2c(cc1Nc1ncc(Cl)c(Nc3cc(C#N)ccc3OC)n1)CCN(CC(=O)N(C)C)CC2 |
| 142 to 143 °C | COc1ccc(CN2C(=O)C3(COc4cc(F)c(C#N)cc43)c3ccccc32)cc1 (centres undefined) |
